Results taken from PubChem BioAssay AID2060903 (Molecular Pharmacology Branch, DTP, NCI, 2025).

Tested on: 377384-186-R-J1-PDC complex spheroid viability
Experiment: Anticancer human tumor 377384-186-R-J1-PDC patient-derived pancreatic carcinoma cell line growth inhibition [RAS]
Settings: for IC50: curve of first compound; for viability, T/C: stronger effect = lower value
Outline: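 Multi-cell-type spheroids: tumor cells plus HUVEC endothelial cells and mesenchymal stem cells. RAS-pathway inhibitors were combined with targeted agents, each dosed in half-log steps down from clinical Cmax, or from 10 microM when Cmax was unknown.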

[1] = second compound 0.00316 µM, first compound 0.0316 µM
[2] = second compound 0.00316 µM, first compound 0.1 µM
[3] = second compound 0.00316 µM, first compound 0.316 µM
[4] = second compound 0.00316 µM, first compound 1 µM
[5] = second compound 0.01 µM, first compound 0.0316 µM
[6] = second compound 0.01 µM, first compound 0.1 µM
[7] = second compound 0.01 µM, first compound 0.316 µM
[8] = second compound 0.01 µM, first compound 1 µM
[9] = second compound 0.0316 µM, first compound 0.0316 µM
[10] = second compound 0.0316 µM, first compound 0.1 µM
[11] = second compound 0.0316 µM, first compound 0.316 µM
[12] = second compound 0.0316 µM, first compound 1 µM
[13] = second compound 0.1 µM, first compound 0.0316 µM
[14] = second compound 0.1 µM, first compound 0.1 µM
[15] = second compound 0.1 µM, first compound 0.316 µM
[16] = second compound 0.1 µM, first compound 1 µM
[17] = second compound 0.316 µM, first compound 0.0316 µM
[18] = second compound 0.316 µM, first compound 0.1 µM
[19] = second compound 0.316 µM, first compound 0.316 µM
[20] = second compound 0.316 µM, first compound 1 µM
[21] = second compound 1 µM, first compound 0.0316 µM
[22] = second compound 1 µM, first compound 0.1 µM
[23] = second compound 1 µM, first compound 0.316 µM
[24] = second compound 1 µM, first compound 1 µM
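Note: spheroids exposed to compounds for seven days before readout.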

CCN1CCN(Cc2ccc(Nc3ncc(F)c(-c4cc(F)c5nc(C)n(C(C)C)c5c4)n3)nc2)CC1 + C=CC(=O)N1CCN(c2nc(OCC3CCCN3C)nc3c(F)c(-c4nc(N)cc(C)c4C(F)(F)F)c(Cl)cc23)C(C)C1
IC50 (second compound 0.00316 µM): 210 nM | IC50 (second compound 0.01 µM): 181 nM | IC50 (second compound 0.0316 µM): 152 nM | IC50 (second compound 0.1 µM): 210 nM | IC50 (second compound 0.316 µM): 223 nM | IC50 (second compound 1 µM): 306 nM | viability, T/C (second compound 0.00316 µM, first compound 0.00316 µM): 87.5% | viability, T/C (second compound 0.00316 µM, first compound 0.01 µM): 77.2% | viability, T/C [1]: 68.7% | viability, T/C [2]: 56.6% | viability, T/C [3]: 45.4% | viability, T/C [4]: 40.4% | viability, T/C (second compound 0.01 µM, first compound 0.00316 µM): 91.4% | viability, T/C (second compound 0.01 µM, first compound 0.01 µM): 79.8% | viability, T/C [5]: 73.3% | viability, T/C [6]: 52.1% | viability, T/C [7]: 46.8% | viability, T/C [8]: 40.2% | viability, T/C (second compound 0.0316 µM, first compound 0.00316 µM): 89.4% | viability, T/C (second compound 0.0316 µM, first compound 0.01 µM): 81.8% | viability, T/C [9]: 73.6% | viability, T/C [10]: 53.6% | viability, T/C [11]: 42.5% | viability, T/C [12]: 36.6% | viability, T/C (second compound 0.1 µM, first compound 0.00316 µM): 82.1% | viability, T/C (second compound 0.1 µM, first compound 0.01 µM): 78% | viability, T/C [13]: 70.7% | viability, T/C [14]: 59% | viability, T/C [15]: 44.6% | viability, T/C [16]: 38.7% | viability, T/C (second compound 0.316 µM, first compound 0.00316 µM): 85.6% | viability, T/C (second compound 0.316 µM, first compound 0.01 µM): 79.2% | viability, T/C [17]: 77% | viability, T/C [18]: 58.9% | viability, T/C [19]: 46.3% | viability, T/C [20]: 39.8% | viability, T/C (second compound 1 µM, first compound 0.00316 µM): 95.1% | viability, T/C (second compound 1 µM, first compound 0.01 µM): 75.4% | viability, T/C [21]: 73.6% | viability, T/C [22]: 57.5% | viability, T/C [23]: 46.1% | viability, T/C [24]: 45.9%

C[C@@H](NC(=O)c1ncnc(N)c1Cl)c1ncc(C(=O)Nc2cc(C(F)(F)F)c(Cl)cn2)s1 + C=CC(=O)N1CCN(c2nc(OCC3CCCN3C)nc3c(F)c(-c4nc(N)cc(C)c4C(F)(F)F)c(Cl)cc23)C(C)C1
IC50 (second compound 0.00316 µM): > 10000 nM | IC50 (second compound 0.01 µM): > 10000 nM | IC50 (second compound 0.0316 µM): > 10000 nM | IC50 (second compound 0.1 µM): > 10000 nM | IC50 (second compound 0.316 µM): > 10000 nM | IC50 (second compound 1 µM): > 10000 nM | viability, T/C [1]: 90% | viability, T/C [2]: 85.2% | viability, T/C [3]: 83.8% | viability, T/C [4]: 108% | viability, T/C (second compound 0.00316 µM, first compound 3.16 µM): 120% | viability, T/C (second compound 0.00316 µM, first compound 10 µM): 122% | viability, T/C [5]: 98.5% | viability, T/C [6]: 86.3% | viability, T/C [7]: 102% | viability, T/C [8]: 118% | viability, T/C (second compound 0.01 µM, first compound 3.16 µM): 122% | viability, T/C (second compound 0.01 µM, first compound 10 µM): 131% | viability, T/C [9]: 98.4% | viability, T/C [10]: 87.8% | viability, T/C [11]: 101% | viability, T/C [12]: 118% | viability, T/C (second compound 0.0316 µM, first compound 3.16 µM): 116% | viability, T/C (second compound 0.0316 µM, first compound 10 µM): 130% | viability, T/C [13]: 84% | viability, T/C [14]: 103% | viability, T/C [15]: 92.3% | viability, T/C [16]: 115% | viability, T/C (second compound 0.1 µM, first compound 3.16 µM): 120% | viability, T/C (second compound 0.1 µM, first compound 10 µM): 124% | viability, T/C [17]: 98.3% | viability, T/C [18]: 87.1% | viability, T/C [19]: 119% | viability, T/C [20]: 115% | viability, T/C (second compound 0.316 µM, first compound 3.16 µM): 143% | viability, T/C (second compound 0.316 µM, first compound 10 µM): 134% | viability, T/C [21]: 93.9% | viability, T/C [22]: 109% | viability, T/C [23]: 110% | viability, T/C [24]: 115% | viability, T/C (second compound 1 µM, first compound 3.16 µM): 122% | viability, T/C (second compound 1 µM, first compound 10 µM): 118%
